Assay results published in ChEMBL document CHEMBL4004854, “Pyrrolo[3',2':6,7]cyclohepta[1,2-b]pyridines with potent photo-antiproliferative activity” (Eur J Med Chem, 2017).
Blank lines part the entries; values can stand above or below the compound they belong to. Activity calls are given as the source filed them. The calls are words filed in the database; no cut-off is given here.

How the values were obtained:
[1] = Dark toxicity against human MCF7 cells assessed as reduction in cell viability after 72 hrs by MTT assay; format: cell-based
[2] = Dark toxicity against human Jurkat cells assessed as reduction in cell viability after 72 hrs by MTT assay; format: cell-based
[3] = Dark toxicity against human K562 cells assessed as reduction in cell viability after 72 hrs by MTT assay; format: cell-based
MCF7 [4] = assay: Phototoxicity against human MCF7 cells assessed as reduction in cell viability preincubated for 30 mins followed by 1.25 J/cm2 UV light irradiation measured after 48 hrs by MTT assay; format: functional, cell-based; settings: MCF7, light or radiation study
MCF7 [5] = assay: Induction of apoptosis in human MCF7 cells assessed as live cells at 20 uM upon UV light irradiation measured after 24 hrs by Annexin V-FITC/propidium iodide staining based flow cytometry (reference value: 72%); format: functional
K562 [6] = assay: Phototoxicity against human K562 cells assessed as reduction in cell viability preincubated for 30 mins followed by 1.25 J/cm2 UV light irradiation measured after 48 hrs by MTT assay; format: functional, cell-based; settings: K562, light or radiation study
MCF7 [7] = assay: Induction of ROS generation in human MCF7 cells up to 4 uM measured after 2 hrs under dark condition by H2DCFDA staining based fluorescence assay; format: cell-based; settings: mcf7, 2 h
Jurkat [8] = assay: Phototoxicity against human Jurkat cells assessed as reduction in cell viability preincubated for 30 mins followed by 1.25 J/cm2 UV light irradiation measured after 48 hrs by MTT assay; format: functional, cell-based; settings: light or radiation study
MCF7 [9] = assay: Induction of mitochondrial dysfunction in human MCF7 cells at 2 uM under dark condition measured after 0.33 to 2 hrs by mitotracker orange CMTM-ROS/LCS1 dye based confocal microscopic method; format: cell-based; settings: mcf7, 2 µM
MCF7 [10] = assay: Induction of lysosomal activation in human MCF7 cells at 2 uM under dark condition measured up to 2 hrs by lysotracker green DND26 dye based confocal microscopic method; format: cell-based; settings: mcf7, 2 h
MCF7 [11] = assay: Induction of lysosomal activation in human MCF7 cells at 2 uM upon UV light irradiation measured up to 2 hrs by lysotracker green DND26 dye based confocal microscopic method; format: functional, cell-based
MCF7 [12] = assay: Induction of mitochondrial dysfunction in human MCF7 cells at 2 uM upon UV light irradiation measured after 0.33 to 2 hrs by mitotracker orange CMTM-ROS/LCS1 dye based confocal microscopic method; format: functional, cell-based
MCF7 [13] = assay: Induction of apoptosis in human MCF7 cells assessed as apoptotic cells at 20 uM upon UV light irradiation measured after 24 hrs by Annexin V-FITC/propidium iodide staining based flow cytometry (reference value: 22%); format: functional
MCF7 [14] = assay: Induction of mitochondrial dysfunction in human MCF7 cells assessed as perinuclear clustering at 2 uM upon UV light irradiation measured after 0.33 to 2 hrs by mitotracker orange CMTM-ROS/LCS1 dye based confocal microscopic method; format: functional, cell-based
K562 [15] = assay: Phototoxic index, ratio of CC50 for human K562 cells under dark condition to EC50 for human K562 cells under UV light irradiated condition
[16] = Induction of singlet oxygen photogeneration in aqueous acetonitrile solution of ADPA assessed as photobleaching of anthracene absorption upon 150 Watt mercury light irradiation at 2.3 10^-5M at 400 nanometer measured up to 100 mins
MCF7 [17] = assay: Induction of apoptosis in human MCF7 cells assessed as tBID activation at 0.25 to 0.5 uM upon 2.5 J/cm2 UV light irradiation measured after 24 hrs by Western blot method; format: functional, cell-based
Escherichia coli [18] = assay: Induction of Escherichia coli pBR322 DNA double strand break assessed as linear form DNA bands at 10 to 40 uM upon 7.5 J/cm2 UV-A light irradiation by ethidium bromide staining based UV transillumination assay
MCF7 [19] = assay: Induction of apoptosis in human MCF7 cells assessed as apoptotic cells at 0.7 uM upon UV light irradiation measured after 24 hrs by Annexin V-FITC/propidium iodide staining based flow cytometry (reference value: 22%); format: functional
[20] = Singlet oxygen sensitizing activity in aqueous acetonitrile solution irradiated with nanosecond laser flash photolysis assessed as lowest triplet-excited state by measuring long lived transient life time at 10^-4 M at 440 nanometer by spectroscopic method
Escherichia coli [21] = assay: Induction of Escherichia coli pBR322 DNA oxidative damage at 40 uM upon 7.5 J/cm2 UV-A light irradiation in presence of Fpg by ethidium bromide staining based electrophoresis
MCF7 [22] = assay: Induction of lysosomal membrane impairment in human MCF7 cells at 2 uM upon UV light irradiation measured up to 2 hrs by lysotracker green DND26 dye based confocal microscopic method; format: functional, cell-based
Jurkat [23] = assay: Phototoxicity against human Jurkat cells assessed as cell viability at 0.075 uM preincubated for 30 mins followed by 2.5 J/cm2 UV light irradiation measured after 72 hrs in presence of vitamin E by MTT assay relative to control; format: functional; settings: light or radiation study, read-out: Activity
[24] = Singlet oxygen sensitizing activity in aqueous acetonitrile solution irradiated with nanosecond laser flash photolysis assessed as lowest triplet-excited state by measuring short lived transient life time at 10^-4 M at 520 nanometer under oxygen saturated condition by spectroscopic method
MCF7 [25] = assay: Induction of apoptosis in human MCF7 cells assessed as caspase-3 activation at 0.25 to 0.5 uM upon 2.5 J/cm2 UV light irradiation measured after 24 hrs by Western blot method; format: functional, cell-based
MCF7 [26] = assay: Induction of apoptosis in human MCF7 cells assessed as necrotic cells at 0.7 uM upon UV light irradiation measured after 24 hrs by Annexin V-FITC/propidium iodide staining based flow cytometry relative to control; format: functional
Escherichia coli [27] = assay: Induction of Escherichia coli pBR322 DNA oxidative damage at 40 uM upon 7.5 J/cm2 UV-A light irradiation in presence of endonuclease-3 by ethidium bromide staining based electrophoresis
[28] = Drug metabolism in aqueous acetonitrile solution assessed as by-product formation at 2.3 10^-5M upon light irradiation by HPLC analysis; format: physicochemical; settings: buffer
Escherichia coli [29] = assay: Induction of Escherichia coli pBR322 DNA single strand break assessed as open circular form DNA bands at 10 to 40 uM upon 7.5 J/cm2 UV-A light irradiation by ethidium bromide staining based UV transillumination assay
MCF7 [30] = assay: Induction of mitochondrial dysfunction in human MCF7 cells assessed as mild swelling at 2 uM upon UV light irradiation measured after 0.33 to 2 hrs by mitotracker orange CMTM-ROS/LCS1 dye based confocal microscopic method; format: functional, cell-based
MCF7 [31] = assay: Induction of mitochondrial dysfunction in human MCF7 cells assessed as organelle fusion at 2 uM upon UV light irradiation measured after 0.33 to 2 hrs by mitotracker orange CMTM-ROS/LCS1 dye based confocal microscopic method; format: functional, cell-based
MCF7 [32] = assay: Phototoxic index, ratio of CC50 for human MCF7 cells under dark condition to EC50 for human MCF7 cells under UV light irradiated condition
MCF7 [33] = assay: Induction of ROS generation in human MCF7 cells up to 4 uM preincubated for 30 mins followed by UV light irradiation measured after 2 hrs in presence of 200 to 500 nM antioxidant NAC by H2DCFDA staining based fluorescence assay; format: functional, cell-based
[34] = Singlet oxygen sensitizing activity in aqueous acetonitrile solution irradiated with nanosecond laser flash photolysis assessed as lowest triplet-excited state by measuring short lived transient life time at 10^-4 M at 520 nanometer under air equilibrated condition by spectroscopic method
Jurkat [35] = assay: Phototoxicity against human Jurkat cells assessed as cell viability at 0.075 uM preincubated for 30 mins followed by 2.5 J/cm2 UV light irradiation measured after 72 hrs in presence of hydroxyl radical scavenger DMTU by MTT assay relative to control; format: functional; settings: light or radiation study, read-out: Activity
[36] = Induction of singlet oxygen photogeneration in aqueous acetonitrile solution of ADPA assessed as photobleaching of anthracene absorption upon 150 Watt mercury light irradiation at 2.3 10^-5M at 400 nanometer measured up to 100 mins by ferrioxalate actinometry
Jurkat [37] = assay: Induction of lipid peroxidation in human Jurkat cells upon 2.5 J/cm2 UV light irradiation measured after 24 hrs by TBARS assay; format: functional, cell-based
[38] = Drug metabolism in aqueous acetonitrile solution assessed as by-product formation at 2.3 10^-5M upon light irradiation by UV-absorption method; format: physicochemical; settings: buffer
[39] = Singlet oxygen sensitizing activity in aqueous acetonitrile solution irradiated with nanosecond laser flash photolysis assessed as lowest triplet-excited state by measuring short lived transient life time at 10^-4 M at 520 nanometer under argon saturated condition by spectroscopic method
Jurkat [40] = assay: Phototoxic index, ratio of CC50 for human Jurkat cells under dark condition to EC50 for human Jurkat cells under UV light irradiated condition
[41] = Singlet oxygen sensitizing activity in aqueous acetonitrile solution irradiated with nanosecond laser flash photolysis assessed as lowest triplet-excited state by measuring short lived transient life time at 10^-4 M at 520 nanometer by spectroscopic method
MCF7 [42] = assay: Induction of ROS generation in human MCF7 cells at 4 uM preincubated for 30 mins followed by UV light irradiation measured after 2 hrs by H2DCFDA staining based fluorescence assay relative to control; format: functional

SMILES: Cn1ccc2c1-c1c(cc(S(=O)(=O)c3ccccc3)c(=O)n1C)CCC2
- CC50 at 72 h [1]: > 20 µM
- CC50 at 72 h [2]: > 20 µM
- CC50 at 72 h [3]: > 20 µM
- EC50 (MCF7 [4]): > 20 µM
- Activity (MCF7 [5]): 66%
- EC50 (K562 [6]): > 20 µM
- Activity (MCF7 [7]): Non-Toxic
- EC50 (Jurkat [8]): > 20 µM
- Activity (MCF7 [9]): Non-Toxic
- Activity (MCF7 [10]): Non-Toxic
- Activity (MCF7 [11]): inactive
- Activity (MCF7 [12]): inactive
- Activity (MCF7 [13]): 25%

- Activity (Escherichia coli [18]): inactive
- Drug metabolism [28]: Metabolite_Notdetected
- Activity (Escherichia coli [29]): inactive
- Drug metabolism [38]: Metabolite_Notdetected
SMILES: CCOC(=O)c1cc2c(n1Cc1ccc(OC)cc1)-c1[nH]c(=O)c(S(=O)(=O)c3ccccc3)cc1CCC2
- Activity (MCF7 [14]): Active
- Ratio CC50/EC50 (K562 [15]): >71.43
- Activity [16]: Active
- CC50 at 72 h [1]: > 20 µM
- Activity (MCF7 [17]): Active
- CC50 at 72 h [2]: > 20 µM
- Activity (MCF7 [19]): 36%
- Time [20]: > 30 microsec
- Activity (Escherichia coli [21]): Active
- Activity (MCF7 [22]): Active
- viability at 0.075 µM (Jurkat [23]): 80 to 90%
- Time [24]: 0.7 microsec
- CC50 at 72 h [3]: > 20 µM
- Activity (MCF7 [25]): Active
- Activity (MCF7 [26]): 18%
- EC50 (MCF7 [4]): 0.7 µM
- Activity (Escherichia coli [27]): Active
- EC50 (K562 [6]): 0.28 µM
- EC50 (Jurkat [8]): 0.21 µM
- Activity (MCF7 [30]): Active
- Activity (MCF7 [31]): Active
- Ratio CC50/EC50 (MCF7 [32]): >28.53
- Activity (MCF7 [33]): inactive
- Activity (MCF7 [9]): Non-Toxic
- Time [34]: 1.2 microsec
- viability at 0.075 µM (Jurkat [35]): 80 to 90%
- Activity [36]: Active
- Activity (Jurkat [37]): Dose-dependent effect
- Activity (MCF7 [11]): Active
- Time [39]: 3.2 microsec
- Ratio CC50/EC50 (Jurkat [40]): >95.24
- Time [41]: < 3.2 microsec
- Activity (MCF7 [42]): <=150%
